Patent US11103549B2, “Use of histone methyltransferase inhibitors and histone deacetylase inhibitors for therapy of Phelan-McDermid Syndrome” (Asddr, LLC, priority 2016, dated 2021)

How the values were obtained:
Shank3+/ΔC mice [1] = experiment: Three-chamber social interaction assay in Shank3+/ΔC mice; format: in vivo; conditions: for improvement on social preference: i.p. once daily for 3 days
Shank3+/ΔC mice [2] = conditions: 5 mg/kg, i.p. 5 days, Kim et al., 2017; cited from earlier work
Shank3+/ΔC mice [3] = conditions: mouse, in vivo
WT mice = experiment: Three-chamber social interaction assay in wild-type mice; format: in vivo; conditions: UNC0642 1 mg/kg, i.p., once daily for 3 days, saline control 62.0%±3.1%
Description: To test the social preference behavior, juvenile male Shank3+/ΔC mice and age-matched wild-type (WT) mice were subject to the three-chamber social interaction assay, as previously described (Duffney et al., 2015). Briefly, the test is composed of three phases with various stimuli placed in each of two side chambers. Phase 1 contains two identical nonsocial stimuli (NS1 & NS1), phase 2 contains a nonsocial stimulus (NS1) and a social stimulus (Soc1), and phase 3 contains a known social stimulus (Soc1) and a novel social stimulus (Soc2). The preference index for one stimulus over the other stimulus in each phase was compared.

[4] = Liu et al., 2013; cited from earlier work
EHMT1/2 = conditions: Liu et al., 2013; cited from earlier work
acetylated H3 = conditions: Shank3+/ΔC mice, romidepsin 0.25 mg/kg, i.p., once daily for 3 days, cortical slices
class I HDAC = conditions: Klimek et al., 2008; cited from earlier work
BTBR T+tf/J mice = conditions: before and after romidepsin treatment
Shank3e4-9 mice = conditions: before and after romidepsin treatment
EHMT2/EHMT1 = conditions: cited from earlier work

CCCC(CCC)C(=O)O [valproic acid]
rescue of autism-like social deficits (social preference index) (Shank3+/ΔC mice [1]; Shank3+/ΔC mice, valproic acid 100 mg/kg, i.p., once daily for 3 days): fail to persistently rescue autism-like social deficits

COc1cc2c(NC3CCN(C(C)C)CC3)nc(N3CCC(F)(F)CC3)nc2cc1OCCCN1CCCC1 [UNC0642, 2-(4,4-Difluoro-1-piperidinyl)-6-methoxy-N-[1-(1-methylethyl)-4-piperidinyl]-7-[3-(1-pyrrolidinyl)propoxy]-4-quinazolinamin]
toxicity at higher dose and longer duration (Shank3+/ΔC mice [2]): lack of toxicity
blood chemistry and hematology: indicators for liver and kidney functions, lipid and protein metabolism (Shank3+/ΔC mice [3]): within normal ranges
social preference index (Soc vs. NS, phase 2) (WT mice): 53.4%±5.1%
brain penetration in vivo [4]: modest brain penetration
selectivity for EHMT1/2 over other methyltransferases (EHMT1/2): > 2,000 fold
duration of therapeutic effect on social preference post-injection (Shank3+/ΔC mice [1]; Shank3+/ΔC mice, UNC0642 1 mg/kg, i.p., once daily for 3 days): ~15 days
social preference index (Soc vs. NS, phase 2) (Shank3+/ΔC mice [1]; Shank3+/ΔC mice, UNC0642 1 mg/kg, i.p., once daily for 3 days, saline control 22.5%±3.3%): 48.9%±2.3%
effect of repeated administration on social preference (Shank3+/ΔC mice [1]; Shank3+/ΔC mice, UNC0642, second round of treatment): still effective with the repeated administration

Romidepsin
level of acetylated H3 (acetylated H3): significantly elevated the level of acetylated H3
potency as class I-specific HDAC inhibitor (class I HDAC): nanomolar potency
rescue of autism-like social deficits (social preference index) (BTBR T+tf/J mice): rescues autism-like social deficits
rescue of autism-like social deficits (social preference index) (Shank3e4-9 mice): rescues autism-like social deficits in multiple mouse models of autism
duration of effect on social preference post-injection (Shank3+/ΔC mice [1]; mouse, in vivo): 21 days
preference for social stimulus over non-social object (Shank3+/ΔC mice [1]; mouse, in vivo): significantly elevated the preference for the social stimulus

CNCCC(Oc1ccc(C(F)(F)F)cc1)c1ccccc1 (stereo not drawn) [fluoxetine]
improvement of social preference (Shank3+/ΔC mice [1]; Shank3+/ΔC mice, fluoxetine 10 mg/kg, i.p. once daily for 2 weeks): failed to induce any improvement

CC(/C=C/C(=O)NO)=C\[C@@H](C)C(=O)c1ccc(N(C)C)cc1 [Trichostatin A]
rescue of autism-like social deficits (social preference index) (Shank3+/ΔC mice [1]; Shank3+/ΔC mice, Trichostatin A 0.5 mg/kg, i.p., once daily for 3 days): fail to persistently rescue autism-like social deficits

Cc1nc2n(c(=O)c1CCN1CCC(c3noc4cc(F)ccc34)CC1)CCCC2 [risperidone]
improvement on social preference (Shank3+/ΔC mice [1]; Shank3+/ΔC mice, risperidone 0.1 mg/kg): No improvement

COc1cc2c(cc1OCCCN1CCCC1)N=C(N)C21CCC1 [A-366]
selectivity over other methyltransferases and other non-epigenetic targets (EHMT2/EHMT1): > 100 fold
IC50 (EHMT2/EHMT1; peptide-competitive inhibitor, read-out: enzymatic IC50 EHMT2/EHMT1): ~3 nM

O=C1CCc2ccc(OCCCCN3CCN(c4cccc(Cl)c4Cl)CC3)cc2N1 [aripiprazole]
improvement on social preference (Shank3+/ΔC mice [1]; Shank3+/ΔC mice, aripiprazole 1 mg/kg): No improvement
